#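 48-hour exposure; five concentrations; linearly interpolated endpoints. GI50 marks 50% less growth.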 Activity calls are given as the source filed them. Rule as the data show it: active = GI50 up to about 1.1 µM and inactive = higher.
# Columns and labels:
# Experiment in all cases: DTP human tumour cell line panel, 48 h
# OVCAR-5 = system: OVCAR-5
# SF-539 = system: SF-539
# COLO 205 = system: COLO 205
# SNB-19 = system: SNB-19
# UACC-257 = system: UACC-257
# HCC 2998 = system: HCC 2998
# NCI-H460 = system: NCI-H460
# CCRF-CEM = system: CCRF-CEM
# SK-OV-3 = system: SK-OV-3
# BT-549 = system: BT-549
# K562 = system: K562
# SN12C = system: SN12C
# T47D = system: T47D
# NCI-H522 = system: NCI-H522
# 786-0 = system: 786-0
# TK-10 = system: TK-10
# DU-145 = system: DU-145
# U-251 = system: U-251
# SW-620 = system: SW-620
# HCT-116 = system: HCT-116
# HT-29 = system: HT-29
# Hs-578T = system: Hs-578T
# SNB-75 = system: SNB-75
# A498 = system: A498
# SR = system: SR
# NCI-H23 = system: NCI-H23
# MDA-MB-435 = system: MDA-MB-435
# MDA-MB-231 = system: MDA-MB-231
# RPMI-8226 = system: RPMI-8226
# MCF7 = system: MCF7
# SK-MEL-2 = system: SK-MEL-2
# KM12 = system: KM12
# LOX IMVI = system: LOX IMVI
# UO-31 = system: UO-31
# HL-60 = system: HL-60
# SF-295 = system: SF-295
# ACHN = system: ACHN
# OVCAR-8 = system: OVCAR-8
# NCI/ADR-RES = system: NCI/ADR-RES
# MOLT-4 = system: MOLT-4
# OVCAR-3 = system: OVCAR-3
# M14 = system: M14
# SK-MEL-28 = system: SK-MEL-28
# HCT-15 = system: HCT-15
# Malme-3M = system: Malme-3M
# HOP-62 = system: HOP-62
# PC-3 = system: PC-3
# NCI-H226 = system: NCI-H226
# EKVX = system: EKVX
# A549 = system: A549
# SF-268 = system: SF-268
# UACC-62 = system: UACC-62
# IGROV-1 = system: IGROV-1
# CAKI-1 = system: CAKI-1
# SK-MEL-5 = system: SK-MEL-5
# MDA-N = system: MDA-N
# OVCAR-4 = system: OVCAR-4
smiles,measurement,setting,value
S=c1sc2c(s1)SCc1cccc(n1)CSc1sc(=S)sc1SCc1cccc(n1)CS2,GI50,OVCAR-5,> 100 µM (inactive)
same,GI50,SF-539,> 100 µM (inactive)
same,GI50,COLO 205,> 100 µM (inactive)
same,GI50,SNB-19,> 100 µM (inactive)
same,GI50,UACC-257,> 100 µM (inactive)
same,GI50,HCC 2998,> 100 µM (inactive)
same,GI50,NCI-H460,> 100 µM (inactive)
same,GI50,CCRF-CEM,> 100 µM (inactive)
same,GI50,SK-OV-3,> 100 µM (inactive)
same,GI50,BT-549,> 100 µM (inactive)
same,GI50,K562,> 100 µM (inactive)
same,GI50,SN12C,> 100 µM (inactive)
same,GI50,T47D,> 100 µM (inactive)
same,GI50,NCI-H522,> 100 µM (inactive)
same,GI50,786-0,> 100 µM (inactive)
same,GI50,TK-10,> 100 µM (inactive)
same,GI50,DU-145,> 100 µM (inactive)
same,GI50,U-251,> 100 µM (inactive)
same,GI50,SW-620,> 100 µM (inactive)
same,GI50,HCT-116,> 100 µM (inactive)
same,GI50,HT-29,> 100 µM (inactive)
same,GI50,Hs-578T,> 100 µM (inactive)
same,GI50,SNB-75,> 100 µM (inactive)
same,GI50,A498,> 100 µM (inactive)
same,GI50,SR,> 100 µM (inactive)
same,GI50,NCI-H23,> 100 µM (inactive)
same,GI50,MDA-MB-435,> 100 µM (inactive)
same,GI50,MDA-MB-231,> 100 µM (inactive)
same,GI50,RPMI-8226,> 100 µM (inactive)
same,GI50,MCF7,> 10 µM (inactive)
same,GI50,SK-MEL-2,> 100 µM (inactive)
same,GI50,KM12,> 100 µM (inactive)
same,GI50,LOX IMVI,> 100 µM (inactive)
same,GI50,UO-31,> 100 µM (inactive)
same,GI50,HL-60,> 100 µM (inactive)
same,GI50,SF-295,> 100 µM (inactive)
same,GI50,ACHN,> 100 µM (inactive)
same,GI50,OVCAR-8,> 100 µM (inactive)
same,GI50,NCI/ADR-RES,> 100 µM (inactive)
same,GI50,MOLT-4,> 100 µM (inactive)
same,GI50,OVCAR-3,> 100 µM (inactive)
same,GI50,M14,> 100 µM (inactive)
same,GI50,SK-MEL-28,> 100 µM (inactive)
same,GI50,HCT-15,> 100 µM
same,GI50,Malme-3M,> 100 µM (inactive)
same,GI50,HOP-62,> 100 µM (inactive)
same,GI50,PC-3,> 100 µM (inactive)
same,GI50,NCI-H226,> 100 µM (inactive)
same,GI50,EKVX,> 100 µM (inactive)
same,GI50,A549,> 100 µM (inactive)
same,GI50,SF-268,> 100 µM (inactive)
same,GI50,UACC-62,> 100 µM (inactive)
same,GI50,IGROV-1,> 100 µM (inactive)
same,GI50,CAKI-1,> 100 µM (inactive)
same,GI50,SK-MEL-5,> 100 µM (inactive)
Oc1ccc(Cc2cc(Cc3ccc(O)cc3)cc(Cc3ccc(O)cc3)c2)cc1,GI50,OVCAR-5,> 50 µM (inactive)
same,GI50,SF-539,> 50 µM (inactive)
same,GI50,SNB-19,> 50 µM (inactive)
same,GI50,UACC-257,> 50 µM (inactive)
same,GI50,HCC 2998,> 50 µM (inactive)
same,GI50,NCI-H460,> 50 µM (inactive)
same,GI50,SK-OV-3,> 50 µM (inactive)
same,GI50,BT-549,> 50 µM (inactive)
same,GI50,K562,> 50 µM (inactive)
same,GI50,SN12C,> 50 µM (inactive)
same,GI50,NCI-H522,> 50 µM (inactive)
same,GI50,786-0,> 50 µM (inactive)
same,GI50,TK-10,> 50 µM (inactive)
same,GI50,DU-145,> 50 µM (inactive)
same,GI50,U-251,> 50 µM (inactive)
same,GI50,SW-620,> 50 µM (inactive)
same,GI50,HCT-116,> 50 µM (inactive)
same,GI50,HT-29,> 50 µM (inactive)
same,GI50,Hs-578T,> 50 µM (inactive)
same,GI50,SNB-75,> 50 µM (inactive)
same,GI50,A498,> 50 µM (inactive)
same,GI50,SR,> 50 µM (inactive)
same,GI50,MDA-MB-435,> 50 µM (inactive)
same,GI50,MDA-MB-231,> 50 µM (inactive)
same,GI50,RPMI-8226,> 50 µM (inactive)
same,GI50,MCF7,> 50 µM (inactive)
same,GI50,SK-MEL-2,> 50 µM (inactive)
same,GI50,KM12,> 50 µM (inactive)
same,GI50,LOX IMVI,> 50 µM (inactive)
same,GI50,UO-31,> 50 µM (inactive)
same,GI50,HL-60,> 50 µM (inactive)
same,GI50,SF-295,> 50 µM (inactive)
same,GI50,ACHN,> 50 µM (inactive)
same,GI50,OVCAR-8,> 50 µM (inactive)
same,GI50,NCI/ADR-RES,> 50 µM (inactive)
same,GI50,MOLT-4,> 50 µM (inactive)
same,GI50,OVCAR-3,> 50 µM (inactive)
same,GI50,M14,> 50 µM (inactive)
same,GI50,SK-MEL-28,> 50 µM (inactive)
same,GI50,HCT-15,> 50 µM
same,GI50,Malme-3M,> 50 µM (inactive)
same,GI50,MDA-N,> 50 µM (inactive)
same,GI50,HOP-62,> 50 µM (inactive)
same,GI50,OVCAR-4,> 50 µM (inactive)
same,GI50,PC-3,> 50 µM (inactive)
same,GI50,NCI-H226,> 50 µM (inactive)
same,GI50,EKVX,> 50 µM (inactive)
same,GI50,A549,> 50 µM (inactive)
same,GI50,SF-268,> 50 µM (inactive)
same,GI50,UACC-62,> 50 µM (inactive)
same,GI50,IGROV-1,> 50 µM (inactive)

# From ChEMBL document CHEMBL1201862, “PubChem BioAssay data set” (2004)
